{"source": "patent US8138214B2", "about": "“Pharmaceutical composition” (Shanghai Allist Pharmaceutical, Inc., priority 2007, dated 2012)", "key": {"[1]": {"conditions": "dog, in vivo, po, 27 mg/kg", "procedure": "(I) Beagle dogs are selected as experimental animals, six dogs per group. 2-butyl-4-chloro-1-[2′-(1H-tetrazol-5-yl) 1,1′-biphenyl-methyl]imidazole-5-carboxylic acid, 1-[(isopropoxy)carbonyloxy]methyl ester suspended in physiologic saline is administered in single dose of drug by gavage in dosage level of 3.0 mg/kg, 9.0 mg/kg, and 27 mg/kg. Blood samples were drawn for each dosage group at set time point. […] Determine the level of the active metabolite in plasma, calculate EXP3174's pharmacokinetic parameters according to the concentration-time curve, and investigate the correlation between dosage and main pharmacokinetic parameters Cmax and AUC0-t."}, "[2]": {"system": "spontaneously hypertensive rat (SHR)", "assay": "Blood pressure in spontaneously hypertensive rat after gavage", "assay_type": "in vivo", "conditions": "for blood pressure decrease: SHR, dispersed in physiologic saline"}}}
{"smiles": "CCCCc1nc(Cl)c(C(=O)OCOC(=O)OC(C)C)n1Cc1ccc(-c2ccccc2-c2nnn[nH]2)cc1", "note": "[Compound I, 2-butyl-4-chloro-1-[2′-(1H-tetrazol-5-yl)1,1′-biphenyl-methyl]imidazole-5-carboxylic acid, 1-[(isopropoxy)carbonyloxy]methyl ester]", "values": [{"measurement": "correlation between dosage and Cmax and AUC0-t of EXP3174", "setting": "[1]", "result": "proportional to the dosage"}, {"measurement": "blood pressure decrease", "setting": "[2]; 15 mg/kg by gavage", "result": "10 mm of mercury column"}, {"measurement": "blood pressure decrease", "setting": "[2]; 30 mg/kg by gavage", "result": "20 mm of mercury column"}, {"measurement": "antihypertensive effect", "setting": "[2]; rats, oral dosage no less than 15 mg/kg", "result": "significant antihypertensive effect"}]}
